Data published in patent US11639345B2, “Methionine metabolic pathway inhibitors” (MIGAL—GALILEE RESEARCH INSTITUTE LTD., priority 2018, dated 2023).

Test system: Roquette
Assay: Roquette assay spray
Format: in vivo
Conditions: spray twice

Structure (SMILES)	Roquette assay spray (twice average)
O=C(O)C1CN(C(=O)c2cc(-c3ccccc3)on2)c2ccccc21 (stereo not drawn) [IML-124]	3.0
O=C(O)C1Cc2ccccc2N1C(=O)c1cc(-c2ccccc2)on1 (stereo not drawn) [IML-163]	4.0
CCn1cc(-c2cccc(NC(=O)c3cccc(OC)c3)c2)nn1 [IML-230]	1.0
COc1cccc(-c2cc(C(=O)N3C[C@H](C(=O)O)c4ccccc43)no2)c1 [IML-238]	2.0

Test system: Arabidopsis thaliana
Assay: Arabidopsis thaliana root growth inhibition
Format: in vivo
Conditions: 168 h, root length ratio vs DMSO control, 50 μM compound, lower values indicate shorter root, larger effect, read-out: Arabidopsis (relative to DMSO)
Protocol: Finally, FIGS. 7a-7o are the photos of the Arabidopsis thaliana plants and the inhibition of their roots growth by the compounds of the present invention. These experiments were conducted as follows. Seeds were washed with 70% ethanol for one minute and then with sterile water. Sterilisation was performed with 50% bleaching solution (3%) and 0.2% Triton x-100 for ten minutes followed by a five-time wash with sterile water. The seeds were placed in six well-plates with half Murashige and Skoog medium (MS; Duchefa, Haarlem, Netherlands), containing 1% sucrose (w/v), pH 5.8. The plates with Arabidopsis thaliana seeds were placed at 4° C. for two days and then transferred for seven days to growth chamber (22±2° C.) at day/light cycles of 16/8 h. The plates were placed vertically. In each plate, a control including 0.1% DMSO in the medium was added. The compounds of the present invention were tested for their herbicidal efficiency by diluting 1000 times a 50 mM stock in DMSO leading to a final concentration of 50 μM with 0.1% DMSO.
In Tables 1, 2 and 4 above, Arabidopsis root length was measured after addition of 50-μM compound compared with the negative control (DMSO) treatment. Length values indicate the ratio between non-treated plates ([…]) and the length after the addition of 50 uM of each compound. Lower values indicate shorter root length, and consequently, larger effect.

Structure (SMILES)	activity at 50 µM [%]
O=C(O)C1CN(C(=O)c2cc(-c3ccccc3)on2)c2ccccc21 (stereo not drawn) [IML-124]	0
O=C(O)C1Cc2ccccc2N1C(=O)c1cc(-c2ccccc2)on1 (stereo not drawn) [IML-163]	0
O=C(O)C1CN(C(=O)c2cc(-c3cccnc3)on2)c2ccccc21 (stereo not drawn) [IML-180]	58
CCc1nc(-c2cncc(NC(=O)c3cccc(OC)c3)c2)no1 [IML-229]	10
CCn1cc(-c2cccc(NC(=O)c3cccc(OC)c3)c2)nn1 [IML-230]	29
COc1cccc(-c2cc(C(=O)N3C[C@H](C(=O)O)c4ccccc43)no2)c1 [IML-238]	3

Test system: E. coli lacking the endogenic MetB CGS gene, transformed to express the CGS from Arabidopsis
Assay: Growth of engineered E. coli expressing Arabidopsis CGS in M9 minimal media, with and without methionine
Format: cell-based
Conditions: score 0-5; growth of E. coli with Arabidopsis CGS gene in M9 minimal media
Protocol: In addition to the direct binding evaluation, specific assay to test the compounds activity and specificity were also developed. In this assay, E. coli cells, lacking the endogenic MetB CGS gene and transformed to express the CGS from Arabidopsis, were used. These cells were grown on M9 minimal media with and without external methionine supplemented to the cells, in the presence of the compounds of the embodiments. These selected compounds of the embodiments, capable of inhibiting the cell growth on M9, but incapable of affecting the cell growth when supplemented with methionine, were validated as methionine-pathway specific inhibitors.
In this assay, Methionine auxotroph E. coli mutant was transformed with PQE-30 vector containing the Arabidopsis CGS gene as previously described in Yael Hacham et al., Plant Physiol., February 2002, 128(2): 454-462. In order to test the effect of the small molecule inhibitors on the CGS and methionine pathway, growth curves of the E. coli in M9 minimal media with […] were measured with and without the addition of external methionine (40 mg/L) in the presence of variable compound concentrations. E. coli growth curves were measured by following the optical density at 600 nm of bacteria in 96 well-plate placed within Tecan M200 plate reader in orbital shaking mode at 37° C. The slope of each curve was estimated using the ‘linest’ function in Excel.

Structure (SMILES)	E. coli Assay LE395 (0-5)
O=C(O)C1CN(C(=O)c2cc(-c3ccccc3)on2)c2ccccc21 (stereo not drawn) [IML-124]	2
O=C(O)C1Cc2ccccc2N1C(=O)c1cc(-c2ccccc2)on1 (stereo not drawn) [IML-163]	4
O=C(O)C1CN(C(=O)c2cc(-c3cccnc3)on2)c2ccccc21 (stereo not drawn) [IML-180]	1
O=C(Nc1cccc(-c2csc(Nc3ccc(C(=O)O)c(O)c3)n2)c1)c1ccccc1 [IML-219]	1
COc1ccc(Cc2nc(-c3cccc(NC(=O)c4cccc(F)c4)c3)no2)cc1 [IML-220]	3
Cc1cc(O)nc(-c2cccc(NC(=O)c3c(O)cccc3F)c2)n1 [IMS-220]	4

Same assay, conditions: score; growth with vs without external methionine (40 mg/L)

Structure (SMILES)	E. coli specificity (MOA)
O=C(O)C1CN(C(=O)c2cc(-c3ccccc3)on2)c2ccccc21 (stereo not drawn) [IML-124]	5
O=C(O)C1Cc2ccccc2N1C(=O)c1cc(-c2ccccc2)on1 (stereo not drawn) [IML-163]	5
O=C(O)C1CN(C(=O)c2cc(-c3cccnc3)on2)c2ccccc21 (stereo not drawn) [IML-180]	5
O=C(Nc1cccc(-c2csc(Nc3ccc(C(=O)O)c(O)c3)n2)c1)c1ccccc1 [IML-219]	5
COc1ccc(Cc2nc(-c3cccc(NC(=O)c4cccc(F)c4)c3)no2)cc1 [IML-220]	5
Cc1cc(O)nc(-c2cccc(NC(=O)c3c(O)cccc3F)c2)n1 [IMS-220]	5

Test system: not listed separately
Assay: TEV (relative to DMSO)
Conditions: not given

Structure (SMILES)	TEV (relative to DMSO)
O=C(O)C1CN(C(=O)c2cc(-c3ccccc3)on2)c2ccccc21 (stereo not drawn) [IML-124]	0.30
O=C(O)C1Cc2ccccc2N1C(=O)c1cc(-c2ccccc2)on1 (stereo not drawn) [IML-163]	0.31
O=C(O)C1CN(C(=O)c2cc(-c3cccnc3)on2)c2ccccc21 (stereo not drawn) [IML-180]	0.25
CCc1nc(-c2cncc(NC(=O)c3cccc(OC)c3)c2)no1 [IML-229]	0.44
COc1cccc(-c2cc(C(=O)N3C[C@H](C(=O)O)c4ccccc43)no2)c1 [IML-238]	0.29

Target: T1, Tobacco CGS (Nicotiana tabacum, UniProt Q9ZPL5)
T1 sequence (Q9ZPL5 79-540): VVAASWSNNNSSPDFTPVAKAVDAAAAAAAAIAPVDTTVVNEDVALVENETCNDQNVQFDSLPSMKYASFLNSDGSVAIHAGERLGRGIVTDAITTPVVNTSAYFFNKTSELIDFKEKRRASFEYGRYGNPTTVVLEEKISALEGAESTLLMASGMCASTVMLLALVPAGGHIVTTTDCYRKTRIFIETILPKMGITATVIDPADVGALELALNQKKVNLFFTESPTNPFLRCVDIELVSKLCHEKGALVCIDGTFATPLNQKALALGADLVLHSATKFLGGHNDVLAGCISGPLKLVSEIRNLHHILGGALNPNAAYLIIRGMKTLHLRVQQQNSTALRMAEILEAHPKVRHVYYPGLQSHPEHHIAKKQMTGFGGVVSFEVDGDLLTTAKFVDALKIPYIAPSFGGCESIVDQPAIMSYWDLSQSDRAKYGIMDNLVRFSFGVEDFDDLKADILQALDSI
Assay: Micro Scale Thermophoresis (MST) direct binding to CGS
Set-up: 6xHIS (N, cleaved yes); GB1 solubility tag (N, cleaved yes); made in house; host or cells: E. coli BL21
Conditions: score 0-5; binding to labelled Tobacco CGS
Protocol: The direct binding of the compounds of the embodiments to the CGS was tested by Micro Scale Thermophoresis (MST). In the MST assay, the CGS protein was labelled with a fluorophore, the samples were heated, and changes in fluorescence were measured as a function of the ligand concentration. In the MST assay, similar to the expression and purification described above, the recombinant Tobacco CGS protein was expressed in E. coli BL21 cells and purified to homogeneity. For that particular purpose, the pET-11 vector containing the DNA sequence of Tobacco CGS with an N-terminus […] tag followed by a TEV-cleavable GB1 solubility tag was cloned and transformed into the bacteria cells. Cells were cultured to OD=0.8, and protein expression was induced by the addition of 1 mM IPTG. The cells were cultured for additional 16 hours temperature 25° C. Following cellular lysis, the soluble fraction was passed through the nickel column and the bound HIS-tagged protein was eluted by 300 mM imidazole. Then, the tags […] and GB1 were cleaved in dialysis o/n and the mixtures passed again through the nickel column to separate the CGS from the TEV and HIS-GB1 constructs. As a final step the CGS was run on S75 size exclusion chromatography. Thus, the MST assay was performed to measure the biding of the compounds to the CGS protein. For this purpose, the CGS was labelled with commercially available amine reactive fluorophore (Cat # MO-[…], NanoTemper) according to the manufacture instructions. The MST binding curves were then measured using the Monolith NT.115 apparatus by incubating the labelled protein with the indicated compounds in a dose-response manner.

Structure (SMILES)	MST Tobacco (0-5)
O=C(O)C1CN(C(=O)c2cc(-c3cccnc3)on2)c2ccccc21 (stereo not drawn) [IML-180]	3
O=C(Nc1cccc(-c2csc(Nc3ccc(C(=O)O)c(O)c3)n2)c1)c1ccccc1 [IML-219]	4
Cc1cc(O)nc(-c2cccc(NC(=O)c3c(O)cccc3F)c2)n1 [IMS-220]	3

Target: T1, Tobacco CGS
Assay: Malachite Green Phosphate assay of direct CGS activity
Format: biochemical
Set-up: 6xHIS (cleaved yes); GB1 solubility tag (cleaved yes); made in house; host or cells: E. coli BL-21
Conditions: 2 h; 50 μM compound, 1 μM CGS, two-hour incubation at 25° C.; read-out: Malachite Green Phosphate Assay (% to DMSO, 50 μM)
Protocol: As discussed above, the first reaction in methionine biosynthesis in plants is catalyzed by the CGS enzyme. In this reaction, the formation of cystathionine is conducted by the γ-replacement of the phosphoryl substituent of O-phospho-homoserine by cysteine and consecutive release of an orthophosphate group.
Expression of recombinant CGS was done by transforming the pET-11 vector containing the DNA sequence of Tobacco CGS with a 6xHIS tag and GB1 solubility tag followed by TEV cleavage site into BL-21 cells. These cells were cultured at 37° C. and optical density (OD)=0.8 protein at 600 nm, and the expression was induced by addition of 1 mM IPTG for 16 hours at 25° C. The protein was purified to homogeneity onto nickel column and cleaved by o/n dialysis with the TEV protease. A second nickel column was used to separate the cleaved CGS from the TEV and GB1 solubility tag.
The direct activity of CGS was tested using the Malachite Green Phosphate Assay Kit (Sigma-Aldrich, cat # MAK307-1KT). It is a highly sensitive and robust experiment used to measure the release of free orthophosphate group based on quantification of the green-coloured complex formed between Malachite Green, molybdate, and free orthophosphate. The rapid colour formation from the reaction can be conveniently measured on a spectrophotometer via the absorbance at 620 nm.
The assay mixture (100 μl) contained 50 mM MOPS—NaOH (pH 7.5), 150 mM NaCl, 0.1 mM PLP and 1 μM purified CGS. The compounds of the present invention were added at a final concentration of 50 μM and reactions were initiated by adding 2 mM cysteine and 3 mM O-phospho-L-homo-serine. After two-hour incubation at 25° C., 80 μL of each sample were transferred into a new 96 well-plate containing 20 μl of Malachite Green Reagent and incubated for additional 30 min at 25° C. Colour development was measured by a plate reader Tecan M200 (620 nm).

Structure (SMILES)	remaining activity at 50 µM [%]
O=C(Nc1cccc(-c2csc(Nc3ccc(C(=O)O)c(O)c3)n2)c1)c1ccccc1 [IML-219]	28.3
COc1ccc(Cc2nc(-c3cccc(NC(=O)c4cccc(F)c4)c3)no2)cc1 [IML-220]	10.8
CCc1nc(-c2cc(CC(=O)O)cc(NC(=O)c3cccc(OC)c3)c2)no1 [IML-228]	27.4
CCc1nc(-c2cncc(NC(=O)c3cccc(OC)c3)c2)no1 [IML-229]	19.6
CCn1cc(-c2cccc(NC(=O)c3cccc(OC)c3)c2)nn1 [IML-230]	21.7
Cc1cc(O)nc(-c2cccc(NC(=O)c3c(O)cccc3F)c2)n1 [IMS-220]	15.9
